In patent US12691084B2, “Pharmaceutical composition for preventing or treating bone diseases” (INDUSTRY FOUNDATION OF CHONNAM NATIONAL UNIVERSITY, priority 2019, dated 2026):

Tests used:
plasma proteins = test: Plasma protein binding (PPB); assay type: in vitro ADME, Human; settings: for binding with plasma proteins: conclusion from ADME evaluation
Procedure: (§1) In order to analyze the drug metabolism of PMSA compound, ADME evaluation was requested to the Daegu-Gyeongbuk Advanced Medical industry Promotion Foundation (DGMIF). Metabolic stability of drugs using liver microsomes (microsomal stability), drug metabolism inhibitory ability by five CYP450 enzymes, plasma metabolism (plasma stability), plasma protein binding, and intestinal permeability of drugs (PAMPA, parallel artificial membrane permeability assay) were analyzed. […] Further, it was confirmed that the permeability resistance was excellent (see Table 3 below). On the other hand, for one of PMSA derivatives, that is, 2-(N-(3,5-dimethylphenyl)methylsulfinamido)-N-(2 (phenylthio)phenyl)propanamide (#25-D5), intestinal permeability of the drug (PAMPA) was not measured.

CYP3A4 = CYP3A4 (Homo sapiens, UniProt P08684); test: CYP450 drug metabolism inhibition, 3A4; assay type: in vitro ADME; settings: for CYP 3A4 remaining activity: criterion remaining activity >50%
CYP3A4, sequence (P08684 whole entry): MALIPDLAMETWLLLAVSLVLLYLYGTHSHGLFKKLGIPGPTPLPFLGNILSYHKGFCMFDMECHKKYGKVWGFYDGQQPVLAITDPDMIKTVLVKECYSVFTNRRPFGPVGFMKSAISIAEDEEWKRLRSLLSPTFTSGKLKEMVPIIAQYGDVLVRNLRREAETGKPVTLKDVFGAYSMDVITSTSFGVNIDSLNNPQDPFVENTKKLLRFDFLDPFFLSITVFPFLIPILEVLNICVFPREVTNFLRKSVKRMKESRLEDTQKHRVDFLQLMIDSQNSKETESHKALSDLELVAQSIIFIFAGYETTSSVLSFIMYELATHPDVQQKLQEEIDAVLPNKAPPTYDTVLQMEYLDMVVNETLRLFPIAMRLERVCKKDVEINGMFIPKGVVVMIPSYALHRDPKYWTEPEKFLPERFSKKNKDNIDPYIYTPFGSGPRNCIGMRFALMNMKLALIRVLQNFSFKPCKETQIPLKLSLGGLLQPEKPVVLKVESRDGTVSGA
Procedure: as §1

[1] = tested on: osteoblast progenitor cells treated with hBMP2; test: Osteoblast differentiation, ALP staining; assay type: cell-based, mouse; settings: 7 days
Procedure: After collecting cells from C57BL/6J mouse calvaria at the age of 3 days, the cells were seeded on a 96-well plate in an amount of 4×10^3 cells per well, and then treated with 100 ng/ml of hBMP2 as a differentiation inducer. Simultaneously, the cells were treated with the compound of the present invention and cultured for 7 days, followed by ALP staining to assess differentiation influence. Specific experimental methods and results are as follows.
Precursor cells isolated from the mouse skull were treated with hBMP2 (Bone morphogenic protein 2, Sino biological, 10426-HNAE, 100 ng/ml) to induce differentiation into osteoblasts. Differentiated osteoblasts could be discriminated through alkaline phosphatase (ALP) staining as an osteoblast-specific protein. When the progenitor cells were treated with hBMP2, each of the 35D35 compounds was also used for treatment, followed by culturing the cells for 7 days while changing the medium every 2 to 3 days.
4×10^3 osteoblast progenitor cells were put into a 96-well plate and treated with hBMP2 to induce differentiation of osteoblasts. At this time, the cells were treated with #25 (PMSA-3-Ac) and #25-D12 (PMSA-2-OMe-5-Cl), respectively, and then cultured for 7 days.
After discarding the ethanol, the remaining product was washed with HBSS, followed by adding a NBT solution (Sigma, B1911) in an amount of 100 μl per well and staining for 15 minutes. By washing twice with water, the remaining dye was eliminated. After ALP staining, a degree of color development was measured using Image J software, and then graphed for comparison. […] In other words, it can be seen that the differentiation of osteoblasts is not affected by treatment with the PMSA compound.
Precursor cells isolated from the mouse skull were treated with hBMP2 (Bone morphogenic protein 2, Sino biological, 10426-HNAE) to induce differentiation into osteoblasts. […]
After ALP staining, the degree of color development was measured using Image J software, and then graphed for comparison. […]

Microsomal stability (H) = assay type: in vitro ADME, human; settings: H of H/M; criterion >60%
Procedure: as §1

CYP1A2 = target: T1, CYP1A2 (Homo sapiens, UniProt P05177); test: CYP450 drug metabolism inhibition, 1A2; assay type: in vitro ADME; settings: criterion remaining activity >50%
T1 sequence (P05177 1-516): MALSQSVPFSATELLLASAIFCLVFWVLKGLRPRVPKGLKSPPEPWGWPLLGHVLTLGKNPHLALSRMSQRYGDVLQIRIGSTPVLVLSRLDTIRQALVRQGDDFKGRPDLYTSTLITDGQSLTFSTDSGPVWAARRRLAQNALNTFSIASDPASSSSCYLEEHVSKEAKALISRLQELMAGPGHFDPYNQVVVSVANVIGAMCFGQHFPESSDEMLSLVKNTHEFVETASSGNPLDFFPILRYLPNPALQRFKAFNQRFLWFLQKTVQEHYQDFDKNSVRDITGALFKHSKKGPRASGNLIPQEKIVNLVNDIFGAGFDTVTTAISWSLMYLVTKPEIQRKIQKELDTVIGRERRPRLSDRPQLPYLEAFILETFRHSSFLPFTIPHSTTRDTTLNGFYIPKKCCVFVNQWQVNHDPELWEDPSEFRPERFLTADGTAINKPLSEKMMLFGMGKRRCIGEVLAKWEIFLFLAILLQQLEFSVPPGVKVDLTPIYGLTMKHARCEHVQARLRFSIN
Procedure: as §1

SMILES	PPB Human (%, bound) (plasma proteins)	binding with plasma proteins (plasma proteins)	CYP 3A4 remaining activity (CYP3A4) [%]	osteoblast differentiation (ALP staining) [1]	Microsomal stability (>60%) H (Microsomal stability (H)) [%]	CYP 1A2 remaining activity (CYP1A2) [%]	utility as a drug such as influence on activity of CYP3A4 (CYP3A4; compared with other derivatives)
CC(=O)c1cccc(N(CC(=O)Nc2ccccc2Sc2ccccc2)S(C)(=O)=O)c1 [#25, 2-(N-(3-acetylphenyl)methylsulfonamido)-N-(2-(phenylthio)phenyl)acetamide]	98.4 %, bound	good	53.3	did not inhibit or activate	8.7	85.7	
Cc1cc(C)cc(N([C@@H](C)C(=O)Nc2ccccc2Sc2ccccc2)S(C)(=O)=O)c1 [#25-D5, N^2-(3,5-dimethylphenyl)-N^2-(methylsulfonyl)-N-[2-(phenylthio)phenyl]alanineamide]	99.8 %, bound		13.4	not affected	10.9	85.1	not higher than other derivatives
COc1ccc(Cl)cc1N(CC(=O)Nc1ccccc1Sc1ccccc1)S(C)(=O)=O [#25-D12, 2-(N-(5-chloro-2-methoxyphenyl)methylsulfonamido)-N-(2-(phenylthio)phenyl)acetamide]	99.8 %, bound	good	26	did not inhibit or activate	13.9	77.9	
